Reference: patent publication US11584747B2, “Substituted pyridopyrimidinonyl compounds useful as T cell activators” (BRISTOL-MYERS SQUIBB COMPANY, priority 2019, dated 2023)
pEC50, pIC50: −log10 of the molar value. Read-outs that look alike come from different tables or passages of the source.

Assays:
human DGKα = human DGKα (Homo sapiens (Human), UniProt P23743); assay: DGKα ADPGLO assay (detergent/lipid micelle substrate); type: biochemical
Protocol: DGK Alpha ADPGLO (Truncated) IC50 (uM)
The detergent/lipid micelle was prepared by combining 15 g phosphatidylserine (Avanti 840035P) and 1 g diacylglycerol (8008110) and dissolving into 150 mL chloroform in a 2 L round bottom flask. Chloroform was removed under high vacuum by rotary evaporation. […] The lipid/detergent solution was split into 5 mL aliquots and stored at −80° C.

[1] = test system: human venous whole blood (IFN-γ); assay: Human whole blood IFN-γ assay; type: cell-based; details: whole blood; normalized to 3 μM reference compound as 100% activation; read-out: IFN-γ Whole Blood Normalized EC50
Protocol: Human venous whole blood (22.5 μL per well), obtained from healthy donors, was pre-treated with compounds for one hour at 37° C. in a humidified 95% air/5% CO2 incubator. The blood was stimulated with 2.5 μL anti-human CD3 and anti-CD28 mAb at a final concentration of 1 μg/mL each for 24 hours at 37° C. IFN-γ in the supernatants was measured using AlphLISA kit (Cat #AL217).

human DGKζ = human DGKζ (Homo sapiens (Human), UniProt Q13574); assay: DGKζ LIPGLO assay (extruded liposome substrate, ADP-Glo luminescence); type: biochemical
[2] = truncated DGK alpha, read-out: DGK alpha ADPGLO (Truncated) IC50
[3] = liposome assay, read-out: DGK zeta LIPGLO IC50
[4] = liposome (LIPGLO) assay, read-out: DGK zeta (liposome assay) IC50
[5] = ADPGLO assay, read-out: DGK alpha ADPGLO IC50

Chain of human DGKζ (Q13574 other isoform, or with tags, fused parts or gaps): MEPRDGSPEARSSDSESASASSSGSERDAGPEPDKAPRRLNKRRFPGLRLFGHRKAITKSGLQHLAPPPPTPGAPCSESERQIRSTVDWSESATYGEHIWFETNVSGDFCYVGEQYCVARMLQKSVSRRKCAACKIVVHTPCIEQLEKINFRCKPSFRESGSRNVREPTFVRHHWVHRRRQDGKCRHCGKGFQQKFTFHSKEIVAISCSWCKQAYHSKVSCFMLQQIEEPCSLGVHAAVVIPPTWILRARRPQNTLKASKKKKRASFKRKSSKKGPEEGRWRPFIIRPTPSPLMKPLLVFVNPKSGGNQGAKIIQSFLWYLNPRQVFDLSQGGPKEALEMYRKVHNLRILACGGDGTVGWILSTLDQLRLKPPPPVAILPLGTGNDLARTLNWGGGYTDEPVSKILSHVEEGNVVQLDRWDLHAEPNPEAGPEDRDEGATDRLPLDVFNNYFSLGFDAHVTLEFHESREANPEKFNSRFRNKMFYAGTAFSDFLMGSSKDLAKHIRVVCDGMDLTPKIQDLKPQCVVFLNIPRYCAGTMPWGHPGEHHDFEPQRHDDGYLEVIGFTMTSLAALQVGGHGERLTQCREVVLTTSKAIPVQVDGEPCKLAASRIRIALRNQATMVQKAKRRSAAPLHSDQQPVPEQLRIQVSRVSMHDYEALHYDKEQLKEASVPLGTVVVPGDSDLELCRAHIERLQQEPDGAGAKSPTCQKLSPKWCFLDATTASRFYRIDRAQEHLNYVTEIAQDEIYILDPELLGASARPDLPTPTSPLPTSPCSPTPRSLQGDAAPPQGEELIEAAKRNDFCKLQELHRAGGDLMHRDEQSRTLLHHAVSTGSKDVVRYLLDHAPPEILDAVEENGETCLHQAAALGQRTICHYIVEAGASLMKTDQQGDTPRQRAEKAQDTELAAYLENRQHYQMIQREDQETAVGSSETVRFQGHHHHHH
Chain of human DGKα (P23743 whole entry, looked up, the tested form may be a part): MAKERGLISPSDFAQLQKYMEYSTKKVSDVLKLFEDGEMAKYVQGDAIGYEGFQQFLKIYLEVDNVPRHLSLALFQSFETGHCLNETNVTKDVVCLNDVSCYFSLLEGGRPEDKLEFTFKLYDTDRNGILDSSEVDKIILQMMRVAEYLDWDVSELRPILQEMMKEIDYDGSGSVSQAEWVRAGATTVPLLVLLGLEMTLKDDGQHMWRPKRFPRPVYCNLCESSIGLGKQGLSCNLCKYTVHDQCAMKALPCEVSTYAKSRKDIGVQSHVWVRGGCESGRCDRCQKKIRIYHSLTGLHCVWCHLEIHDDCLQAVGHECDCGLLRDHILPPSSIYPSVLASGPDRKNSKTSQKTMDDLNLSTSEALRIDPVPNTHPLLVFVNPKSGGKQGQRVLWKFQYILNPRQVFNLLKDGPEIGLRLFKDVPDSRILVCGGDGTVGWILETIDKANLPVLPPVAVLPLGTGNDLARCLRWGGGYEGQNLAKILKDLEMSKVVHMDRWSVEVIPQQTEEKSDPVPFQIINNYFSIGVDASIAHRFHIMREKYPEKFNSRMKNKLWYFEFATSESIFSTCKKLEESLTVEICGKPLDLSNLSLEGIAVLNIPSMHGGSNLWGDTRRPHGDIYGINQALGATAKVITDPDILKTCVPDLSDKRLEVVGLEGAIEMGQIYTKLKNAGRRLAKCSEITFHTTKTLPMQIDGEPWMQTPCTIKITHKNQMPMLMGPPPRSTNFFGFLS

SMILES	pIC50 (human DGKα; [2])	pEC50 [1]	pIC50 (human DGKζ; [3])	pIC50 (human DGKζ; [4])	pIC50 (human DGKα; [5])
CCCC(c1ccc(C(F)(F)F)cc1)N1C[C@H](CC)N(c2nc(=O)n(C)c3ccc(C#N)nc23)C[C@H]1CC (stereo partly drawn) [Example 243, 4-((2S,5R)-2,5-Diethyl-4-(1-(4-(trifluoromethyl)phenyl)butyl)piperazin-1-yl)-1-methyl-2-oxo-1,2-dihydropyrido[3,2-d]pyrimidine-6-carbonitrile]	8.22	7.23	–	–	–
CCC(c1ccc(C2CC2)cc1F)N1C[C@H](C)N(c2nc(=O)n(C)c3ccc(C#N)nc23)C[C@H]1CC (stereo partly drawn) [Example 303, 4-((2S,5R)-4-(1-(4-cyclopropyl-2-fluorophenyl)propyl)-5-ethyl-2-methylpiperazin-1-yl)-1-methyl-2-oxo-1,2-dihydropyrido[3,2-d]pyrimidine-6-carbonitrile]	5.75	–	5.29	–	–
CC[C@@H]1CN(c2nc(=O)n(C)c3ccc(C#N)nc23)[C@@H](C)CN1C(c1nnc(C2CC2)o1)C(C)C (single isomer, unassigned) [Example 368]	–	–	–	5.65	5.93
CC[C@H]1CN(C(C)c2ccc3oc(C4CC4)nc3c2)[C@H](CC)CN1c1nc(=O)n(C)c2ccc(C#N)nc12 (stereo partly drawn) [Example 254, 4-((2S,5R)-4-(1-(2-cyclopropylbenzo[d]oxazol-5-yl)ethyl)-2,5-diethylpiperazin-1-yl)-1-methyl-2-oxo-1,2-dihydropyrido[3,2-d]pyrimidine-6-carbonitrile]	5.55	–	5.67	–	–
CCC(c1ccc(OC2CC2)cc1)N1C[C@H](C)N(c2nc(=O)n(C)c3ccc(C#N)nc23)C[C@H]1CC (stereo partly drawn) [Example 312, 4-((2S,5R)-4-(1-(4-cyclopropoxyphenyl)propyl)-5-ethyl-2-methylpiperazin-1-yl)-1-methyl-2-oxo-1,2-dihydropyrido[3,2-d]pyrimidine-6-carbonitrile]	–	–	–	6.06	6.22
CCOc1ccc(CN2C[C@H](C)N(c3nc(=O)n(C)c4ccc(C#N)nc34)C[C@H]2CC)cc1 [Example 310, 4-((2S,5R)-4-(4-ethoxybenzyl)-5-ethyl-2-methylpiperazin-1-yl)-1-methyl-2-oxo-1,2-dihydropyrido[3,2-d]pyrimidine-6-carbonitrile]	–	–	–	6.55	7.11
CC[C@@H]1CN(c2nc(=O)n(C)c3ccc(C#N)nc23)[C@@H](C)CN1C(C)c1ccc(CNC(=O)OC)cc1 (stereo partly drawn) [Example 359, Methyl (4-(1-((2R,5S)-4-(6-cyano-1-methyl-2-oxo-1,2-dihydropyrido[3,2-d]pyrimidin-4-yl)-2-ethyl-5-methylpiperazin-1-yl)ethyl)benzyl)carbamate]	–	–	–	6.66	7.62
CC[C@H]1CN(C(C)c2ccc(C(F)(F)F)cc2)[C@H](CC)CN1c1nc(=O)n(C)c2ccc(OC(F)F)nc12 (stereo partly drawn) [Example 444, 4-((2S,5R)-2,5-Diethyl-4-(1-(4-(trifluoromethyl)phenyl)ethyl)piperazin-1-yl)-6-(difluoromethoxy)-1-methylpyrido[3,2-d]pyrimidin-2(1H)-one]	–	–	–	6.74	6.40
CC[C@@H]1CN(c2nc(=O)n(C)c3ccc(C#N)nc23)[C@@H](C)CN1C(C)c1ccc(CNC(=O)OC)cc1 (stereo partly drawn) [Example 360, Methyl (4-(1-((2R,5S)-4-(6-cyano-1-methyl-2-oxo-1,2-dihydropyrido[3,2-d]pyrimidin-4-yl)-2-ethyl-5-methylpiperazin-1-yl)ethyl)benzyl)carbamate]	–	–	–	6.18	6.82
CC[C@H]1CN(C(C)c2ccc(CN3CCCCC3)cc2)[C@H](CC)CN1c1nc(=O)n(C)c2ccc(C#N)nc12 (stereo partly drawn) [Example 281, 4-((2S,5R)-2,5-diethyl-4-(1-(4-(piperidin-1-ylmethyl)phenyl)ethyl)piperazin-1-yl)-1-methyl-2-oxo-1,2-dihydropyrido[3,2-d]pyrimidine-6-carbonitrile]	5.14	–	4.36	–	–
CC[C@@H]1CN(c2nc(=O)n(C)c3ccc(C#N)nc23)[C@@H](C)CN1C(c1nnc(C2CC2)o1)C(C)C (single isomer, unassigned) [Example 367]	–	–	–	6.07	6.92
CCC(c1ccc(C2OCCO2)cc1)N1C[C@H](C)N(c2nc(=O)n(C)c3ccc(C#N)nc23)C[C@H]1CC (stereo partly drawn) [Example 332, 4-((2S,5R)-4-(1-(4-(1,3-dioxolan-2-yl)phenyl)propyl)-5-ethyl-2-methylpiperazin-1-yl)-1-methyl-2-oxo-1,2-dihydropyrido[3,2-d]pyrimidine-6-carbonitrile]	–	–	–	6.14	7.13
CCC(c1ccc(C2CC2)cc1)N1C[C@H](C)N(c2nc(=O)n(C)c3ccc(C#N)nc23)C[C@H]1CC (stereo partly drawn) [Example 300, 4-((2S,5R)-4-(1-(4-cyclopropylphenyl)propyl)-5-ethyl-2-methylpiperazin-1-yl)-1-methyl-2-oxo-1,2-dihydropyrido[3,2-d]pyrimidine-6-carbonitrile]	7.89	–	7.66	–	–
CCC(c1ccc(OC(F)F)cc1)N1C[C@H](CC)N(c2nc(=O)n(C)c3ccc(C#N)nc23)C[C@H]1CC (stereo partly drawn) [Example 222, 4-((2S,5R)-4-(1-(4-(difluoromethoxy)phenyl)propyl)-2,5-diethylpiperazin-1-yl)-1-methyl-2-oxo-1,2-dihydropyrido[3,2-d]pyrimidine-6-carbonitrile]	8.70	–	7.77	–	–
CCC(C1CC1)N1C[C@H](C)N(c2nc(=O)n(C)c3ccc(C#N)nc23)C[C@H]1C (stereo partly drawn) [Example 455, 4-((2S,5R)-4-(1-cyclopropylpropyl)-2,5-dimethylpiperazin-1-yl)-1-methyl-2-oxo-1,2-dihydropyrido[3,2-d]pyrimidine-6-carbonitrile]	–	–	–	5.12	5.29
CCC(c1ccc(OC2CC2)cc1)N1C[C@H](C)N(c2nc(=O)n(C)c3ccc(C#N)nc23)C[C@H]1CC (stereo partly drawn) [Example 311, 4-((2S,5R)-4-(1-(4-cyclopropoxyphenyl)propyl)-5-ethyl-2-methylpiperazin-1-yl)-1-methyl-2-oxo-1,2-dihydropyrido[3,2-d]pyrimidine-6-carbonitrile]	–	–	–	8.22	7.89
CCC(c1ccc(C2CC2)cc1F)N1C[C@H](C)N(c2nc(=O)n(C)c3ccc(C#N)nc23)C[C@H]1C (stereo partly drawn) [Example 381, 4-((2S,5R)-4-(1-(4-cyclopropyl-2-fluorophenyl)propyl)-2,5-dimethylpiperazin-1-yl)-1-methyl-2-oxo-1,2-dihydropyrido[3,2-d]pyrimidine-6-carbonitrile]	–	–	–	5.47	6.07
CC[C@H]1CN(C(C)c2ccc3oc(C4CC4)nc3c2)[C@H](CC)CN1c1nc(=O)n(C)c2ccc(C#N)nc12 (stereo partly drawn) [Example 253, 4-((2S,5R)-4-(1-(2-cyclopropylbenzo[d]oxazol-5-yl)ethyl)-2,5-diethylpiperazin-1-yl)-1-methyl-2-oxo-1,2-dihydropyrido[3,2-d]pyrimidine-6-carbonitrile]	5.42	–	7.01	–	–
CC[C@@H]1CN(c2nc(=O)n(C)c3ccc(C#N)nc23)[C@@H](CC)CN1Cc1ccc(C2CC2)cc1F [Example 242, 4-((2S,5R)-4-(4-cyclopropyl-2-fluorobenzyl)-2,5-diethylpiperazin-1-yl)-1-methyl-2-oxo-1,2-dihydropyrido[3,2-d]pyrimidine-6-carbonitrile]	6.59	–	6.72	–	–
CC[C@H]1CN(C(C)c2ccc(CN3CCC(F)(F)CC3)cc2)[C@H](CC)CN1c1nc(=O)n(C)c2ccc(C#N)nc12 (stereo partly drawn) [Example 277, 4-((2S,5R)-4-(1-(4-((4,4-difluoropiperidin-1-yl)methyl)phenyl)ethyl)-2,5-diethylpiperazin-1-yl)-1-methyl-2-oxo-1,2-dihydropyrido[3,2-d]pyrimidine-6-carbonitrile]	6.80	–	7.74	–	–
CCOc1ccc2c(n1)c(N1C[C@@H](CC)N(C(CC)c3ccc(C(F)(F)F)cc3)C[C@@H]1CC)nc(=O)n2C (stereo partly drawn) [Example 437, 4-((2S,5R)-2,5-diethyl-4-(1-(4-(trifluoromethyl)phenyl)propyl)piperazin-1-yl)-6-ethoxy-1-methylpyrido[3,2-d]pyrimidin-2(1H)-one]	–	–	–	3.60	3.60
CCOC(=O)[C@H]1C[C@@H]1Oc1ccc(C(C)N2C[C@H](CC)N(c3nc(=O)n(C)c4ccc(C#N)nc34)C[C@H]2CC)cc1 (stereo partly drawn) [Example 259, ethyl (1S,2S)-2-(4-(1-((2R,5S)-4-(6-cyano-1-methyl-2-oxo-1,2-dihydropyrido[3,2-d]pyrimidin-4-yl)-2,5-diethylpiperazin-1-yl)ethyl)phenoxy)cyclopropane-1-carboxylate]	5.66	–	5.74	–	–
CC[C@H]1CN(C(C)c2ccc(CN3CCN(C)C(=O)C3)cc2)[C@H](CC)CN1c1nc(=O)n(C)c2ccc(C#N)nc12 (stereo partly drawn) [Example 288, 4-((2S,5R)-2,5-diethyl-4-(1-(4-((4-methyl-3-oxopiperazin-1-yl)methyl)phenyl)ethyl)piperazin-1-yl)-1-methyl-2-oxo-1,2-dihydropyrido[3,2-d]pyrimidine-6-carbonitrile]	5.39	–	4.50	–	–
CC[C@H]1CN(C(C)c2ccc(C(F)(F)F)cc2)[C@H](CC)CN1c1nc(=O)n(C)c2ccc(COC)nc12 (single isomer, unassigned) [Example 424]	–	–	–	5.34	3.94
CCC(c1ccc(C(F)(F)F)cc1)N1C[C@H](CC)N(c2nc(=O)n(C)c3ccc(Cl)nc23)C[C@H]1CC (single isomer, unassigned) [Example 422]	–	–	–	5.16	6.64
